Reference: ChEMBL document CHEMBL1201862, “PubChem BioAssay data set” (2004)
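Test compounds were applied to cells in 96-well plates for 48 hours at 5 doses. Here, GI50 denotes the concentration required for 50% inhibition of growth.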 The source made the active and inactive calls. Cut-off read from the data, not from the text of the source: active = GI50 up to about 1.1 µM and inactive = higher.

Columns and labels:
Experiment in all cases: DTP human tumour cell line panel, 48 h
SW-620 = tested on: SW-620
OVCAR-4 = tested on: OVCAR-4
HCT-116 = tested on: HCT-116
TK-10 = tested on: TK-10
HCT-15 = tested on: HCT-15
MOLT-4 = tested on: MOLT-4
CCRF-CEM = tested on: CCRF-CEM
SN12C = tested on: SN12C
SF-268 = tested on: SF-268
MDA-N = tested on: MDA-N
BT-549 = tested on: BT-549
OVCAR-5 = tested on: OVCAR-5
786-0 = tested on: 786-0
NCI-H522 = tested on: NCI-H522
UO-31 = tested on: UO-31
DU-145 = tested on: DU-145
NCI-H460 = tested on: NCI-H460
SK-MEL-5 = tested on: SK-MEL-5
SF-539 = tested on: SF-539

Row | Compound | GI50 (SW-620) | GI50 (OVCAR-4) | GI50 (HCT-116) | GI50 (TK-10) | GI50 (HCT-15) [µM] | GI50 (MOLT-4) | GI50 (CCRF-CEM) | GI50 (SN12C) | GI50 (SF-268) | GI50 (MDA-N) | GI50 (BT-549) | GI50 (OVCAR-5) | GI50 (786-0) | GI50 (NCI-H522) | GI50 (UO-31) | GI50 (DU-145) | GI50 (NCI-H460) | GI50 (SK-MEL-5) | GI50 (SF-539)
1 | N#CC(C#N)=C1C(=O)NC(N)=C1C#N | > 100 µM (inactive) | > 100 µM (inactive) | > 100 µM (inactive) | > 100 µM (inactive) | > 100 | > 100 µM (inactive) | > 100 µM (inactive) | > 100 µM (inactive) | > 100 µM (inactive) | > 100 µM (inactive) | > 100 µM (inactive) | > 100 µM (inactive) | > 100 µM (inactive) | > 100 µM (inactive) | > 100 µM (inactive) | > 100 µM (inactive) | > 100 µM (inactive) | > 100 µM (inactive) | 
2 | Cc1cc(Br)c(O)c(-c2cscn2)c1 | 12.3 µM (inactive) | 14.6 µM (inactive) | 12.6 µM (inactive) | 22.4 µM (inactive) | 5.57 |  | 6.55 µM (inactive) | 10.5 µM (inactive) |  |  | 10.9 µM (inactive) | 20.6 µM (inactive) | 2.43 µM (inactive) |  | 12.7 µM (inactive) |  | 21.4 µM (inactive) | 16.8 µM (inactive) | 20 µM (inactive)
3 | Cc1ccc2c(c1)C(=C(C#N)C#N)CCCS2(=O)=O | > 100 µM (inactive) | > 100 µM (inactive) | > 100 µM (inactive) | > 100 µM (inactive) | > 100 | > 100 µM (inactive) | > 100 µM (inactive) | > 100 µM (inactive) | > 100 µM (inactive) | > 100 µM (inactive) | > 100 µM (inactive) | > 100 µM (inactive) | > 100 µM (inactive) |  | > 100 µM (inactive) | > 100 µM (inactive) | > 100 µM (inactive) |  | > 100 µM (inactive)
4 | COc1cc2nc(-c3cccs3)nc(Cl)c2cc1OC | > 100 µM (inactive) | 52.5 µM (inactive) | > 100 µM (inactive) | > 100 µM (inactive) | > 100 |  |  | > 100 µM (inactive) | > 100 µM (inactive) |  | > 100 µM (inactive) | > 100 µM (inactive) | > 100 µM (inactive) | > 100 µM (inactive) | > 100 µM (inactive) | > 100 µM (inactive) | > 100 µM (inactive) | 12 µM (inactive) | > 100 µM (inactive)
5 | O=C1NC(=S)N/C1=C/c1c(-c2ccccc2)[nH]c2ccccc12 | 17.1 µM (inactive) | 16.1 µM (inactive) | 14.3 µM (inactive) | 15.8 µM (inactive) | 14.7 | 12.4 µM (inactive) |  | 18.5 µM (inactive) | 25.7 µM (inactive) | 14.9 µM (inactive) | 12.6 µM (inactive) | 17.9 µM (inactive) | 14 µM (inactive) | 13.2 µM (inactive) | 9.23 µM (inactive) |  | 12.9 µM (inactive) | 13 µM (inactive) | 17.4 µM (inactive)
6 | OC1COC2CC(Nc3ccccn3)OC12 (stereo not drawn) | > 100 µM (inactive) | > 100 µM (inactive) | > 100 µM (inactive) | > 100 µM (inactive) | > 100 | > 100 µM (inactive) | > 100 µM (inactive) | > 100 µM (inactive) | > 100 µM (inactive) | > 100 µM (inactive) | > 100 µM (inactive) | > 100 µM (inactive) | > 100 µM (inactive) | > 100 µM (inactive) | > 100 µM (inactive) |  | > 100 µM (inactive) | > 100 µM (inactive) | > 100 µM (inactive)
7 | O/N=C(/C(Cl)=C(Cl)Cl)C(Cl)Cl | 20.4 µM (inactive) | 16.7 µM (inactive) | 17.9 µM (inactive) | 18.3 µM (inactive) | 17.2 | 15.9 µM (inactive) | 12.4 µM (inactive) | 18.1 µM (inactive) | 17 µM (inactive) | 17 µM (inactive) | 21.3 µM (inactive) | 25.9 µM (inactive) | 18.7 µM (inactive) |  | 20.9 µM (inactive) | 29.6 µM (inactive) | 37.2 µM (inactive) | 19.5 µM (inactive) | 21.5 µM (inactive)
8 | Oc1ccc2c(c1)CCc1c-2n(CCN2CCOCC2)c2ccc(O)cc12 | 44.9 µM (inactive) |  | 41.3 µM (inactive) | 36.7 µM (inactive) | 36.1 | 33.4 µM (inactive) | 38.2 µM (inactive) | > 100 µM (inactive) | 31.8 µM (inactive) | 45.3 µM (inactive) | 31.3 µM (inactive) | 78.3 µM (inactive) | 43.5 µM (inactive) |  | 10.4 µM (inactive) | 33 µM (inactive) | 33.2 µM (inactive) | 15.7 µM (inactive) | 27.9 µM (inactive)
9 | CC(=O)Nc1cc(C(=O)Nc2cc(C(=O)Nc3cc(C(=O)Nc4cc(C(=O)Nc5cc(C(=O)NCCC(=O)NCCCN(C)C)n(C)c5)n(C)c4)n(C)c3)n(C)c2)n(C)c1 | 69.5 µM (inactive) | > 100 µM (inactive) | 37.3 µM (inactive) | > 100 µM (inactive) | > 100 | 38.9 µM (inactive) | 27.8 µM (inactive) | > 100 µM (inactive) | 71.3 µM (inactive) | 34.9 µM (inactive) |  | > 100 µM (inactive) | 63.7 µM (inactive) | 17.9 µM (inactive) | > 100 µM (inactive) | > 100 µM (inactive) | > 100 µM (inactive) | > 100 µM (inactive) | 44.5 µM (inactive)
